Consider 11 compounds from patent US11427548B2 (Arvinas Operations, Inc., priority 2015, dated 2022).

Molecules are shown by their SMILES. Where two headings read alike, the source gives them in different places.

The test addresses T1, Androgen Receptor (Homo sapiens, UniProt P10275).
T1 construct: endogenous in cells; host or cells: VCaP cells
T1 sequence (P10275 1-920): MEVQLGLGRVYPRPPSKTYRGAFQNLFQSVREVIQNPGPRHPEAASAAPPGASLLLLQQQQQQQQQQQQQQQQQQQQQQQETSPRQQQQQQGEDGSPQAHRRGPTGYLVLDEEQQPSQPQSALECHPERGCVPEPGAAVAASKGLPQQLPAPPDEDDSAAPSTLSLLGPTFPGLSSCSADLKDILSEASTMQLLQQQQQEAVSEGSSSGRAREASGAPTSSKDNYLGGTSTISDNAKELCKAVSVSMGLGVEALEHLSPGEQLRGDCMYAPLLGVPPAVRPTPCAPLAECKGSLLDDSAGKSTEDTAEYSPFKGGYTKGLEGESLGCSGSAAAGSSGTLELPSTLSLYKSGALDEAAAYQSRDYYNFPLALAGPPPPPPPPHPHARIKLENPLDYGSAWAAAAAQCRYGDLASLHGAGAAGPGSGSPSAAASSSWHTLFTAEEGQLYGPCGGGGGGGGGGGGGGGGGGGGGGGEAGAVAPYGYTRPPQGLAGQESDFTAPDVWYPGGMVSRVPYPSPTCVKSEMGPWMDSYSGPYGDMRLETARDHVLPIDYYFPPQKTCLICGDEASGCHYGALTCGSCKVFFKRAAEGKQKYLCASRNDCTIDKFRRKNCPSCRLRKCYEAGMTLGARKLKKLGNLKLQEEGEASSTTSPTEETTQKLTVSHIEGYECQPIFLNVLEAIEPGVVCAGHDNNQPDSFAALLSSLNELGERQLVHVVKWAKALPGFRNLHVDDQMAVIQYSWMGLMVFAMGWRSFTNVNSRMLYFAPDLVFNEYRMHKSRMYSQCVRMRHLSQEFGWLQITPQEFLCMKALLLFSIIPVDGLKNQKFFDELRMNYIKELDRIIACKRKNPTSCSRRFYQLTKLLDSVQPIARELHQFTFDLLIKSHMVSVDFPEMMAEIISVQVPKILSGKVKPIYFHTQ
As to the kind of experiment: Androgen Receptor ELISA assay (PathScan AR ELISA) in VCaP cells: AR degradation, Dmax and DC50. In kind it is cell-based. As to conditions: Table 36; for DC50: read-out: VCaP DC50; for Dmax: VCaP. Put shortly:
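VCaP cells in phenol red-free RPMI with 5% charcoal-stripped FBS were grown at least 3 days, then given compound as 7 half-log doses in 0.1% DMSO with 0.1 nM R1881 for 24 h. Lysates went into a sandwich AR ELISA with TMB read at 450 nm.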
Background: An ELISA detects its analyte on a solid surface through an enzyme-linked reagent.

The mark [1] stands for this setting: VCaP cells, read-out: VCaP Dmax (%).
The mark [2] stands for this setting: read-out: VCaP Dmax (%), VCaP cells.

The term DC50 denotes the midpoint of the concentration-degradation curve. What is called Dmax is the largest share of the target that was removed. For `Cc1ncsc1-c1ccc([C@H](C)NC(=O)[C@@H]2C[C@@H](O)CN2C(=O)[C@H](c2cc(N3CCN(CCCc4ccc(C(=O)N[C@H]5C(C)(C)[C@H](Oc6ccc(C#N)c(Cl)c6)C5(C)C)cc4)CC3)no2)C(C)C)cc1` [Example 796, (2S,4R)-1-((S)-2-(3-(4-(3-(4-(((1r,3r)-3-(3-chloro-4-cyanophenoxy)-2,2,4,4-tetramethylcyclobutyl)carbamoyl)phenyl)propyl)piperazin-1-yl)isoxazol-5-yl)-3-methylbutanoyl)-4-hydroxy-N-((S)-1-(4-(4-methylthiazol-5-yl)phenyl)ethyl)pyrrolidine-2-carboxamide], where the note is “VCaP cells”, the DC50 is over 501 nM. Under setting [1], the Dmax lay within 26 to 50%.

Turning to `Cc1ncsc1-c1ccc([C@H](C)NC(=O)[C@@H]2C[C@@H](O)CN2C(=O)[C@@H](c2cc(N3CCN(CCCc4ccc(C(=O)N[C@H]5C(C)(C)[C@H](Oc6ccc(C#N)c(Cl)c6)C5(C)C)cc4)CC3)no2)C(C)C)cc1` [Example 797, (2S,4R)-1-((R)-2-(3-(4-(3-(4-(((1r,3r)-3-(3-chloro-4-cyanophenoxy)-2,2,4,4-tetramethylcyclobutyl)carbamoyl)phenyl)propyl)piperazin-1-yl)isoxazol-5-yl)-3-methylbutanoyl)-4-hydroxy-N-((S)-1-(4-(4-methylthiazol-5-yl)phenyl)ethyl)pyrrolidine-2-carboxamide], the DC50 (VCaP cells) is under 50 nM. The Dmax under setting [1] fell in the range of 51 to 70%.

As for `Cc1ncsc1-c1ccc([C@H](C)NC(=O)[C@@H]2C[C@@H](O)CN2C(=O)[C@@H](NC(=O)CCCCN2C[C@H]3C[C@@H]2CN3c2ccc(C(=O)N[C@H]3C[C@H](Oc4ccc(C#N)c(Cl)c4)C3)cn2)C(C)(C)C)cc1` [Example 798, N-((1r,3R)-3-(3-chloro-4-cyanophenoxy)cyclobutyl)-6-((1R,4R)-5-(5-(((S)-1-((2S,4R)-4-hydroxy-2-(((S)-1-(4-(4-methylthiazol-5-yl)phenyl)ethyl)carbamoyl)pyrrolidin-1-yl)-3,3-dimethyl-1-oxobutan-2-yl)amino)-5-oxopentyl)-2,5-diazabicyclo[2.2.1]heptan-2-yl)nicotinamide], the DC50 (VCaP cells) was over 501 nM. The Dmax under setting [1] is under 25%.

Take `Cc1ncsc1-c1ccc([C@H](C)NC(=O)C2C[C@@H](O)CN2C(=O)C(NC(=O)CCC(F)(F)CN2CCN(c3ccc(C(=O)N[C@H]4C(C)(C)[C@H](Oc5ccc(C#N)c(Cl)c5)C4(C)C)cn3)CC2)C(C)(C)C)cc1` (stereo partly drawn) [Example 799, N-((1r,3r)-3-(3-chloro-4-cyanophenoxy)-2,2,4,4-tetramethylcyclobutyl)-6-(4-(2,2-difluoro-5-(((S)-1-((2S,4R)-4-hydroxy-2-(((S)-1-(4-(4-methylthiazol-5-yl)phenyl)ethyl)carbamoyl)pyrrolidin-1-yl)-3,3-dimethyl-1-oxobutan-2-yl)amino)-5-oxopentyl)piperazin-1-yl)nicotinamide]: the DC50 (VCaP cells) is under 50 nM. Moreover, the Dmax under setting [1] fell in the range of 51 to 70%.

Take `Cc1ncsc1-c1ccc(C(CO)NC(=O)[C@@H]2C[C@@H](O)CN2C(=O)[C@@H](NC(=O)CCC(F)(F)CN2CCN(c3ccc(C(=O)N[C@H]4C(C)(C)[C@H](Oc5ccc(C#N)c(Cl)c5)C4(C)C)cn3)CC2)C(C)(C)C)cc1` (stereo partly drawn) [Example 800, N-((1r,3r)-3-(3-chloro-4-cyanophenoxy)-2,2,4,4-tetramethylcyclobutyl)-6-(4-(2,2-difluoro-5-(((S)-1-((2S,4R)-4-hydroxy-2-(((R)-2-hydroxy-1-(4-(4-methylthiazol-5-yl)phenyl)ethyl)carbamoyl)pyrrolidin-1-yl)-3,3-dimethyl-1-oxobutan-2-yl)amino)-5-oxopentyl)piperazin-1-yl)nicotinamide]: for the setting “VCaP cells”, the DC50 was under 50 nM. Also, the Dmax under setting [1] is over 71%.

`Cc1ncsc1-c1ccc([C@H](C)NC(=O)C2C[C@@H](O)CN2C(=O)[C@@H](NC(=O)CN2C[C@@H]3C[C@H]2CN3CCCc2ccc(C(=O)N[C@H]3C(C)(C)[C@H](Oc4ccc(C#N)c(Cl)c4)C3(C)C)cc2)C(C)(C)C)cc1` (stereo partly drawn) [Example 801, (2S,4R)-1-((S)-2-(2-((1S,4S)-5-(3-(4-(((1r,3S)-3-(3-chloro-4-cyanophenoxy)-2,2,4,4-tetramethylcyclobutyl)carbamoyl)phenyl)propyl)-2,5-diazabicyclo[2.2.1]heptan-2-yl)acetamido)-3,3-dimethylbutanoyl)-4-hydroxy-N-((S)-1-(4-(4-methylthiazol-5-yl)phenyl)ethyl)pyrrolidine-2-carboxamide]: the half-maximal degradation concentration (DC50) (VCaP cells) was under 50 nM. Also, under setting [1], the Dmax was 51 to 70%.

Take `Cc1ncsc1-c1ccc([C@H](C)NC(=O)[C@@H]2C[C@@H](O)CN2C(=O)[C@@H](NC(=O)CN2C3CCC2CN(CCCc2ccc(C(=O)NC4C(C)(C)C(Oc5ccc(C#N)c(Cl)c5)C4(C)C)cc2)C3)C(C)(C)C)cc1` (stereo partly drawn) [Example 802, (2S,4R)-1-((2S)-2-(2-(3-(3-(4-(((1r,3r)-3-(3-chloro-4-cyanophenoxy)-2,2,4,4-tetramethylcyclobutyl)carbamoyl)phenyl)propyl)-3,8-diazabicyclo[3.2.1]octan-8-yl)acetamido)-3,3-dimethylbutanoyl)-4-hydroxy-N-((S)-1-(4-(4-methylthiazol-5-yl)phenyl)ethyl)pyrrolidine-2-carboxamide]: where the note is “VCaP cells”, the “VCaP Dmax (%)” value is recorded as “+++ (51% ≤ Dmax ≤ 70%)” and the DC50 was under 50 nM.

`Cc1ncsc1-c1ccc([C@H](C)NC(=O)C2C[C@@H](O)CN2C(=O)[C@@H](NC(=O)CCCC2(N3CCN(c4ccc(C(=O)N[C@H]5C(C)(C)[C@H](Oc6ccc(C#N)c(Cl)c6)C5(C)C)cn4)CC3)COC2)C(C)(C)C)cc1` (stereo partly drawn) [Example 803, N-((1r,3r)-3-(3-chloro-4-cyanophenoxy)-2,2,4,4-tetramethylcyclobutyl)-6-(4-(3-(4-(((S)-1-((2S,4R)-4-hydroxy-2-(((S)-1-(4-(4-methylthiazol-5-yl)phenyl)ethyl)carbamoyl)pyrrolidin-1-yl)-3,3-dimethyl-1-oxobutan-2-yl)amino)-4-oxobutyl)oxetan-3-yl)piperazin-1-yl)nicotinamide]: where the note is “VCaP cells”, the DC50 was over 501 nM. Also, the Dmax under setting [1] was 26 to 50%.

Take `Cc1ncsc1-c1ccc([C@H](C)NC(=O)[C@@H]2C[C@@H](O)CN2C(=O)[C@@H](NC(=O)CN2CCN(CCCCN3CCN(c4ccc(C(=O)N[C@H]5C(C)(C)[C@H](Oc6ccc(C#N)c(Cl)c6)C5(C)C)cn4)CC3)CC2)C(C)(C)C)cc1` [Example 804, N-((1r,3r)-3-(3-chloro-4-cyanophenoxy)-2,2,4,4-tetramethylcyclobutyl)-6-(4-(4-(4-(2-(((S)-1-((2S,4R)-4-hydroxy-2-(((S)-1-(4-(4-methylthiazol-5-yl)phenyl)ethyl)carbamoyl)pyrrolidin-1-yl)-3,3-dimethyl-1-oxobutan-2-yl)amino)-2-oxoethyl)piperazin-1-yl)butyl)piperazin-1-yl)nicotinamide]: the DC50 (VCaP cells) is under 50 nM. Moreover, the Dmax under setting [2] lay in the range of 51 to 70%.

As for `Cc1ncsc1-c1ccc([C@H](C)NC(=O)[C@@H]2C[C@@H](O)CN2C(=O)[C@@H](NC(=O)CN2CCN(CCOCCN3CCN(c4ccc(C(=O)N[C@H]5C(C)(C)[C@H](Oc6ccc(C#N)c(Cl)c6)C5(C)C)cn4)CC3)CC2)C(C)(C)C)cc1` [Example 805, N-((1r,3r)-3-(3-chloro-4-cyanophenoxy)-2,2,4,4-tetramethylcyclobutyl)-6-(4-(2-(2-(4-(2-(((S)-1-((2S,4R)-4-hydroxy-2-(((S)-1-(4-(4-methylthiazol-5-yl)phenyl)ethyl)carbamoyl)pyrrolidin-1-yl)-3,3-dimethyl-1-oxobutan-2-yl)amino)-2-oxoethyl)piperazin-1-yl)ethoxy)ethyl)piperazin-1-yl)nicotinamide], under “VCaP cells”, the DC50 is over 501 nM. Also, the Dmax under setting [2] was under 25%.

Take `Cc1ncsc1-c1ccc([C@H](C)NC(=O)C2C[C@@H](O)CN2C(=O)C(NC(=O)CN2CCN(CCCCc3ccc(C(=O)N[C@H]4C(C)(C)[C@H](Oc5ccc(C#N)c(Cl)c5)C4(C)C)cc3)CC2)C(C)(C)C)cc1` (stereo partly drawn) [Example 806, (2S,4R)-1-((S)-2-(2-(4-(4-(4-(((1r,3r)-3-(3-chloro-4-cyanophenoxy)-2,2,4,4-tetramethylcyclobutyl)carbamoyl)phenyl)butyl)piperazin-1-yl)acetamido)-3,3-dimethylbutanoyl)-4-hydroxy-N-((S)-1-(4-(4-methylthiazol-5-yl)phenyl)ethyl)pyrrolidine-2-carboxamide]: the DC50 (VCaP cells) is under 50 nM. For the same compound, the Dmax under setting [1] is over 71%.
